Test results from patent publication US6392085B1, “Therapeutic nucleosides” (SmithKline Beecham Corporation, priority 1992, dated 2002).
Where two headings read alike, the source gives them in different places.

Assays:
[1] = test system: human bon marrow progenitor cells (CFU-GM); test: Toxicity in human bone marrow progenitor cells in vitro, CFU-GM; type: cell-based
Protocol: (§1) Compounds of formula (I) were tested fortoxicity in human bon marrow progenitor cells, in vitro, by the method of Dornsife, R. E. et at., 1991, Antimicrob. Agents Chemother., 35: 322-328. Three separate assays were performed using marrow from three different donors.

[2] = test system: human bon marrow progenitor cells (BFU-E); test: Toxicity in human bone marrow progenitor cells in vitro, BFU-E; type: cell-based; settings: 50% inhibition of bone marrow progenitor cells; three assays, marrow from three donors
Protocol: as §1

[3] = test system: Human cytomegalovirus (HCMV); test: Anti-HCMV plaque reduction assay in monolayers of MRCS cells (human embryonic lung); type: cell-based; settings: Human betaherpesvirus 5, 50% inhibitory concentration estimated from dose-response curve
Protocol: Human cytomegalovirus (HCMV) is assayed in monolayers of MRCS cells (human embryonic lung) in multiwell trays. Activity of compounds is determined in the plaque reduction assay, in which a cell monolayer is infected with a suspension of HCMV. A range of concentrations of the compound to be tested (of known moiarity) is then incorporated into the carboxymethyl cellulose overlay. Plaque numbers of each concentration are expressed as percentage of the control and a dose-response curve is drawn. From this curve the 50% inhibitory concentration (IC50) is estimated.

[4] = test system: herpes simplex virus type 1 (HSV-1); settings: J. Med. Chem. 1987, 30, 746-749; Biochem. Pharmacol. 1990, 40, 1515-1522; especially the (+)-enantiomer; cited from earlier work
[5] = test system: hepatitis B viral replication; settings: Proc. Natl. Acad. Sci. USA 1989, 86, 8541-8544; cited from earlier work
[6] = 50% inhibition of bone marrow progenitor cells, three assays, marrow from three donors

Compound	melting point [°C]	Cell Toxicity I50 CFU-GM [1, 6] [µM]	Cell Toxicity I50 BFU-E [2]	IC50 [3] [nM]	Cell Toxicity I50 CFU-GM [1] [µM]	activity against HSV-1 [4]	inhibition of hepatitis B viral replication [5]
Nc1nc(NCC2CC2)c2ncn([C@@H]3C[C@H](CO)[C@@H](O)C3)c2n1 (racemic) [Ex. 22, (±) (1S, 2R, 4R)-4-[2-Amino-6-(cyclopropylmethylamino)-9H-purin-9-yl]-2-(hydroxymethyl)-1-cyclopentanol]		34 ± 14	>>50 μM	3100			
Nc1nc2c(ncn2[C@@H]2C[C@H](CO)[C@@H](O)C2)c(=O)[nH]1 (relative stereo) [2′-CDG, (1R*, 3S*, 4R)-2-amino-1,9-dihydro-9-[3-hydroxy-4-hydroxymethyl)cyclopentyl]-6H-purine-6-one, reference compound]			4 ± 2 µM		0.4 ± 0.3	active against herpes simplex virus type 1	inhibits hepatitis B viral replication

More lines, main results first:

melting point [°C]	Compound	Cell Toxicity I50 CFU-GM [1, 6] [µM]	Cell Toxicity I50 BFU-E [2]	IC50 [3] [nM]	Cell Toxicity I50 CFU-GM [1] [µM]	activity against HSV-1 [4]	inhibition of hepatitis B viral replication [5]
181 to 182	Nc1nc(OC2CCCC2)c2ncn([C@@H]3C[C@H](CO)[C@@H](O)C3)c2n1 (racemic) [Example 28, (±)-(1S, 2R, 4R)-4-(2-Amino-6-(cyclopentyloxy)-9H-purin-9-yl)-2-(hydroxymethyl)-1-cyclopentanol]						
> 250	Cl.Cl.Nc1nc(NC2CC2)c2ncn([C@H]3C[C@@H](CO)[C@H](O)C3)c2n1 (stereo in doubt)						
174 to 176	Nc1nc(NC2CC2)c2ncn([C@@H]3C[C@H](CO)[C@@H](O)C3)c2n1 (stereo in doubt) [Ex. 23, (±)-(1S, 2R, 4R)-4-[2-Amino-6-(cyclopropylamino)-9H-purin-9-yl]-2-(hydroxymethyl)-1-cyclopentanol]	14 ± 1	55 ± 15 µM	2800			
